Assays:
[1] = test system: German cockroach (Blattella germanicus); assay: whole plant or invertebrate; details: 240 h, read-out: percent mortality, GECR
[2] = test system: beet armyworm (Spodoptera exiqua); assay: whole plant or invertebrate; details: 144 h, read-out: percent mortality, BAW
[3] = test system: tobacco budworm (Heliothis virescens); assay: Activity against tobacco budworm (TBW); format: in vivo; details: 144 h, read-out: percent mortality, TBW
Procedure, shortened: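 Eighteen to twenty Heliothis virescens eggs were placed on half-strength artificial diet and sprayed one hour later with compound at 400 and 50 ppm, in aqueous Tween 20 with acetone/EtOH. Cups were held 6 days at room temperature. Ratings were based on live and dead larval counts and live larval size.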

[4] = test system: two spotted spider mite (Tetranychus urticae); assay: whole plant or invertebrate; details: 72 h, read-out: percent mortality, TSSM
[5] = test system: aster leafhopper (Macrosteles fascifrons); assay: whole plant or invertebrate; details: 24 h, read-out: percent mortality, ALH
[6] = test system: Southern corn rootworm (Diabrotica undecimpuctata howardi Barber); assay: whole plant or invertebrate; details: in Zea mays, soil, read-out: percent mortality, SCRW
[7] = test system: peanut root knot nematode (Meloidogyne arenaria); assay: whole plant or invertebrate; details: in Arachis hypogaea, read-out: percent mortality, RKN
[8] = test system: cotton aphid (Aphis gossypii); assay: whole plant or invertebrate; details: 72 h, read-out: percent mortality, CA

Row | Structure (SMILES) | mortality at 400 ppm [1] | mortality at 400 ppm [2] | mortality at 400 ppm [3] | mortality at 400 ppm [4] | mortality at 400 ppm [5] | mortality at 24 µg/g [6] | mortality at 400 ppm [7] | mortality at 400 ppm [8]
1 | CCc1nccc(NC(=O)Cc2ccc(OC(F)(F)C(F)F)cc2)n1 [Compound 55, 4-(1,1,2,2-tetrafluoroethoxy)phenyl-N-(2-ethyl-4-pyrimidinyl)acetamide] | 100% | 100% | 80% | 100% | 100% | 100% | 100% | 100%
2 | CCc1nccc(NC(=O)C(=CN(C)C)c2ccc(Oc3ccc(C(F)(F)F)cc3)cc2)n1 [Compound 73, 3-(dimethylamino)-N-(2-ethyl-4-pyrimidinyl)-1-(4-(4-trifluoromethylphenoxy)phenyl)-2-propenamide] | 100% | 100% | 100% | 100% | 100% | 100% | 100% | 100%
3 | CC(C)(C)c1nccc(NC(=O)Cc2ccc(Oc3ccc(C(F)(F)F)cc3)cc2)n1 [Compound 62, 4-(4-trifluoromethylphenoxy)phenyl-N-(2-(1,1-dimethylethyl)-4-pyrimidinyl)acetamide] | 100% | 100% | 100% | 100% | 80% | 100% | 0% | 100%
4 | O=C(Cc1ccc(OCC(F)(F)F)cc1)Nc1ccnc(-c2ccccc2)n1 [Compound 5, 4-(2,2,2-trifluroethoxy)phenyl-N-(2-phenyl-4-pyrimidinyl)acetamide] | 0% | 30% | 0% | 0% | 0% | 0% | 0% | 0%
5 | O=C(Cc1ccc(Oc2ccc(F)cc2)cc1)Nc1ccnc(Cl)n1 [Compound 54, 4-(4-fluorophenoxy)phenyl-N-(2-chloro-4-pyrimidinyl)acetamide] | 0% | 100% | 60% | 0% | 0% | 0% | 0% | 0%
6 | COCc1nccc(NC(=O)Cc2ccc(Oc3ccc(C(F)(F)F)cc3)cc2)n1 [Compound 70, 4-(4-trifluoromethylphenoxy)phenyl-N-(2-(methoxymethyl)-4-pyrimidinyl)acetamide] | 100% | 100% | 60% | 80% | 0% | 0% | 0% | 90%
7 | CCc1nccc(NC(=O)C(=CN(C)C)c2ccc(Oc3ccc(C#N)cc3)cc2)n1 [Compound 78, 3-(dimethylamino)-N-(2-ethyl-4-pyrimidinyl)-1-(4-(4-cyanophenoxy)phenyl)-2-propenamide] | 80% | 100% | 100% | 80% | 60% | 0% | 100% | 80%
8 | O=C(Cc1ccc(Oc2cccc(C(F)(F)F)c2)cc1)Nc1ccnc(C2CCC2)n1 [Compound 71, 4-(3-trifluoromethylphenoxy)phenyl-N-(2-cyclobutyl-4-pyrimidinyl)acetamide] | 100% | 100% | 60% | 0% | 0% | 0% | 0% | 0%
9 | CC(C)(C)c1nccc(NC(=O)Cc2ccc(Oc3ccc(C#N)cc3)cc2)n1 [Compound 60, 4-(4-cyanophenoxy)phenyl-N-(2-(1,1-dimethylethyl)-4-pyrimidinyl)acetamide] | 100% | 100% | 100% | 100% | 100% | 100% | 100% | 100%
10 | CCNC=C(C(=O)Nc1ccnc(CC)n1)c1ccc(Oc2ccc(C#N)cc2)cc1 [Compound 79, 3-(ethylamino)-N-(2-ethyl-4-pyrimidinyl)-1-(4-(4-cyanophenoxy)phenyl)-2-propenamide] | 100% | 100% | 100% | 100% | 80% | 100% | 100% | 100%

— patent US5556859A, “N-(4-pyrimidinyl)amide pesticides” (DowElanco, priority 1994, dated 1996)
